Legend:
[1] = Tablet dissolution as a function of medium pH and composition (FIGS. 13-15); format: physicochemical; details: for dissolution from tablets: pH 2.0, 4.5 and 6.8 buffers, FaSSIF and FeSSIF; for dissolution from tablets at 60 minutes: pH 4.0 and 5.0 containing 2.0% w/v polysorbate 80
[2] = Photostability of tablet cores and film-coated tablets per ICH Q1B (Table 12); format: physicochemical; details: for level of degradation products: tablets film-coated to weight gains 2.1 to 5.4%; for loss after exposure to light: uncoated tablet cores
Protocol: Tablet cores and film-coated tablets were evaluated per ICH Q1B guidelines with a total of illumination of more than 1.2 million-lux hours and a total irradiance of more than 200 W·hr/m^2.

[3] = Stress studies: stability of tablets made with stressed VEL SSD/VOX SSD (water, residual solvent, peroxide, reprocessing, potency; Tables 16-21); format: physicochemical
Protocol: The impact of the following stressors on the physical and chemical stability of the sofosbuvir/velpatasvir SSD/voxilaprevir SSD tablets were evaluated:
(i) Voxilaprevir SSD and velpatasvir SSD, and sofosbuvir/velpatasvir SSD/voxilaprevir SSD tablet water content;
(ii) Copovidone peroxide content in velpatasvir SSD and in voxilaprevir SSD (iii) Reprocessed velpatasvir SSD and voxilaprevir SSD;
(iv) Voxilaprevir SSD and velpatasvir SSD potency (varying the ratio of velpatasvir or voxilaprevir to copovidone); and
(v) Seeding sofosbuvir/velpatasvir SSD/voxilaprevir SSD tablets with crystalline voxilaprevir Form VIII and Form X drug substances.

[4] = Chemical and physical stability of Formulation G film-coated tablets Lots A and B (Tables 11A, 11B); format: physicochemical; details: packaged Formulation G tablets; 40° C./75% RH and 25° C./60% RH for 6 months
Protocol: In some embodiments, the film-coated tablets were packaged in 75 and 100 mL white HDPE bottles (Lots A and B, respectively, as described in Tables 11A, 11B) with 1 g silica gel desiccant canisters and a polyester fiber coil. The 75 and 100 mL HDPE bottles contained fourteen and twenty eight tablets, respectively. Each HDPE bottle was capped using a continuous thread, child-resistant polypropylene screw cap with an […], aluminum-faced line. The packaged tablets (14 and 28 counts) were evaluated for stability at 40° C./75% RH and 25° C./60% RH. Additionally, the 14-count bottles (without cap) were evaluated for stability under open conditions at 40° C./75% RH.

[5] = BCS classification and pH dependence of solubility; format: physicochemical
[6] = Tablet dissolution, 50 mM sodium acetate buffer pH 5.0 with 2.0% w/v Polysorbate 80, USP Type II, 75 rpm; format: physicochemical; details: for dissolution at 30 minutes: after 4 weeks open at 40° C./75% RH
Protocol: FIGS. 10-12 depict additional dissolution profiles for the sofosbuvir/velpatasvir SSD/voxilaprevir SSD tablets having the formulation described in Table 13 and which were used in phase 1, 2, and 3 clinical studies, where the dissolution testing was conducted at pH 5.0 acetate buffer containing 2.0% w/v polysorbate 80. Four batches of the sofosbuvir/velpatasvir SSD/voxilaprevir SSD tablets were tested, with Batch A manufactured at 100 kg and Batches B, C and D manufactured at 145 kg. All other aspects of the formulation and manufacturing process were otherwise equivalent. […] Moreover, for Batch A, the amount dissolved at 30 min remained between 98 and 100% for sofosbuvir, between 90 and 92% for velpatasvir SSD, and between 89 and 93% for voxilaprevir SSD. […] For Batch D, the amount dissolved at 30 min remained at 100% for sofosbuvir, between 90 and 91% for velpatasvir SSD, and between 89 and 91% for voxilaprevir SSD. Release of velpatasvir SSD and voxilaprevir SSD from the sofosbuvir/velpatasvir SSD/voxilaprevir SSD tablets associated with all four Batches was complete after 60 minutes.

[7] = Velpatasvir pharmacokinetics after single and multiple oral doses (Table 1); format: in vivo, human; details: for t1/2 / tlast / tmax: median
Protocol: Following single and multiple oral doses of velpatasvir, maximum plasma concentrations occurred between 1.50 and 3.25 hours (median tmax).

[8] = Impact of desiccant and packaging configuration on tablet stability (Tables 24A-24C); format: physicochemical; details: desiccant study (0, 1, 3 g); all conditions, 6 months;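 note: stability of tablets stored with different desiccant amounts and packaging configurations, evaluating physical and chemical stability plus dissolution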
[9] = Voxilaprevir Form VI pharmacokinetics after single and multiple doses in healthy subjects (Table 2); format: in vivo, human; details: for Ctau: mean
Protocol: Pub. No. 2015/0175625 A1. Initial studies were conducted using the crystalline Form VI of voxilaprevir. As described previously, Form VI of voxilaprevir is characterized by an X-ray powder diffractogram comprising the following peaks (±0.2°): at 14.6, 15.4, and 20.0 °2θ, as determined on a diffractometer using Cu—Kα radiation. Following single and multiple oral doses of voxilaprevir, Form VI, maximum plasma concentrations occurred between 2.0 and 5.0 hours (median tmax). […] Steady-state concentrations of voxilaprevir, Form VI were achieved after 7 days of once-daily dosing across all dose levels (Table 2).

[10] = Relative bioavailability of voxilaprevir amorphous free acid tablets vs Form VI tablets, fasted and fed, healthy subjects (Table 3); format: in vivo, human; details: human, in vivo, oral, single dose 100 mg, healthy subjects, fasted
Description: Accordingly, a spray dried dispersion of voxilaprevir in the amorphous free acid form was selected for incorporation into the tablet formulation.

[11] = SSD potency study, tablet Lots A-D, all conditions
[12] = tablets from VEL SSD 6.0% residual ethanol and VOX SSD 2.1% residual acetone, all conditions
[13] = tablets from VEL SSD 7.0% and VOX SSD 3.2% water content, all conditions

Compound: COC[C@H]1C[C@@H](c2ncc(-c3ccc4c(c3)COc3cc5c(ccc6nc([C@@H]7CC[C@H](C)N7C(=O)[C@@H](NC(=O)OC)C(C)C)[nH]c65)cc3-4)[nH]2)N(C(=O)[C@H](NC(=O)OC)c2ccccc2)C1 [velpatasvir, methyl {(2S)-1-[(2S,5S)-2-(9-{2-[(2S,4S)-1-{(2R)-2-[(methoxycarbonyl)amino]-2-phenylacetyl}-4-(methoxymethyl)pyrrolidin-2-yl]-1H-imidazol-5-yl}-1,11-dihydroisochromeno[4′,3′:6,7]naphtho[1,2-d]imidazol-2-yl)-5-methylpyrrolidin-1-yl]-3-methyl-1-oxobutan-2-yl}carbamate]
- dissolution from tablets [1]: Incomplete dissolution
- dissolution from tablets at 60 minutes [1]: complete dissolution
- level of degradation products [2]: 0.4%
- loss after exposure to light [2]: up to 0.3%
- total impurities/degradation products [3, 11]: 0.0%
- total impurities/degradation products ([3]; tablets from SSDs with copovidone 544 ppm (VEL SSD) and 655 ppm (VOX SSD) peroxides): 0.0%
- total impurities/degradation products [3, 12]: 0.0%
- total impurities/degradation products [3, 13]: 0.0%
- total impurities/degradation products [4]: 0.0%
- BCS Class [5]: BCS Class 4
- aqueous solubility, pH dependence [5]: pH-dependent
- dissolution at 30 minutes ([6]; potency study Lot A): 86%
- dissolution at 30 minutes ([6]; potency study Lot B): 91%
- dissolution at 30 minutes ([6]; potency study Lots C and D): 89-93%
- release of velpatasvir at 30 minutes ([6]; tablets containing neat amorphous velpatasvir free base): 62%
- release of velpatasvir at 30 minutes ([6]; tablets containing velpatasvir SSD): 91%
- CLss/F ([7]; multiple dose 5 mg, mean): 36,095.7 mL/h
- Cmax ([7]; multiple dose 5 mg, mean): 28.3 ng/mL
- t1/2 ([7]; multiple dose 5 mg): 13.73 h
- tlast ([7]; multiple dose 5 mg): 24.00 h
- tmax ([7]; multiple dose 5 mg): 2.00 h
- CLss/F ([7]; multiple dose 50 mg, mean): 19,593.0 mL/h
- Cmax ([7]; multiple dose 50 mg, mean): 411.4 ng/mL
- Ctau ([7]; multiple dose 50 mg, mean): 37.9 ng/mL
- t1/2 ([7]; multiple dose 50 mg): 13.02 h
- tlast ([7]; multiple dose 50 mg): 24.00 h
- CLss/F ([7]; multiple dose 150 mg, mean): 45,082.3 mL/h
- Cmax ([7]; multiple dose 150 mg, mean): 669.4 ng/mL
- Ctau ([7]; multiple dose 150 mg, mean): 63.4 ng/mL
- t1/2 ([7]; multiple dose 150 mg): 15.15 h
- tlast ([7]; multiple dose 150 mg): 24.00 h
- CLss/F ([7]; multiple dose 450 mg, mean): 58,804.6 mL/h
- Cmax ([7]; multiple dose 450 mg, mean): 1195.7 ng/mL
- Ctau ([7]; multiple dose 450 mg, mean): 127.7 ng/mL
- t1/2 ([7]; multiple dose 450 mg): 11.74 h
- tlast ([7]; multiple dose 450 mg): 24.00 h
- tmax ([7]; multiple dose 450 mg): 3.00 h
- mean plasma concentration at 24 hours postdose relative to protein-adjusted EC50 for genotype 1 to 6 HCV replicons ([7]; multiple once-daily doses greater than 5 mg): above
- CL/F ([7]; single dose 5 mg, mean): 58,398.0 mL/h
- tlast ([7]; single dose 5 mg): 24.00 h
- CL/F ([7]; single dose 50 mg, mean): 19,188.4 mL/h
- Clast ([7]; single dose 50 mg, mean): 2.34 ng/mL
- tlast ([7]; single dose 50 mg): 72.00 h
- CL/F ([7]; single dose 100 mg, mean): 24,617.9 mL/h
- Clast ([7]; single dose 100 mg, mean): 2.85 ng/mL
- tlast ([7]; single dose 100 mg): 95.00 h
- CL/F ([7]; single dose 150 mg, excluding one patient, mean (% CV)): ^bMean (% CV) CL/F for the VEL 150 mg group (excluding one patient) was 31,403.8 (40.5) mL/h.
- CL/F ([7]; single dose 150 mg, mean): 72,185.5 mL/h
- Clast ([7]; single dose 150 mg, mean): 2.23 ng/mL
- tlast ([7]; single dose 150 mg): 96.00 h
- CL/F ([7]; single dose 450 mg, mean): 53,676.4 mL/h
- Clast ([7]; single dose 450 mg, mean): 3.28 ng/mL
- tlast ([7]; single dose 450 mg): 96.00 h

Compound: CC[C@@H]1[C@@H]2CN(C(=O)[C@H](C(C)(C)C)NC(=O)O[C@@H]3C[C@H]3CCCCC(F)(F)c3nc4ccc(OC)cc4nc3O2)[C@@H]1C(=O)N[C@]1(C(=O)NS(=O)(=O)C2(C)CC2)C[C@H]1C(F)F [voxilaprevir, (1aR,5S,8S,9S,10R,22aR)-5-tert-butyl-N-{(1R,2R)-2-(difluoromethyl)-1-[(1-methylcyclopropanesulfonyl)carbamoyl]cyclopropyl}-9-ethyl-18,18-difluoro-14-methoxy-3,6-dioxo-1,1a,3,4,5,6,9,10,18,19,20,21,22,22a-tetradecahydro-8H-7,10-methanocyclopropa[18,19][1,10,3,6]dioxadiazacyclononadecino[11,12-b]quinoxaline-8-carboxamide]
- total impurities/degradation products [8]: 0.0%
- dissolution from tablets [1]: Incomplete dissolution
- dissolution from tablets at 60 minutes [1]: complete dissolution
- level of degradation products [2]: 0.0%
- loss after exposure to light [2]: no change
- total impurities/degradation products [3, 11]: 0.7%
- total impurities/degradation products [3, 12]: 0.0%
- total impurities/degradation products [3, 13]: 0.0%
- BCS Class [5]: BCS Class 2
- aqueous solubility, pH dependence [5]: pH-dependent
- dissolution at 30 minutes ([6]; potency study Lot A): 85%
- dissolution at 30 minutes ([6]; potency study Lot B): 91%
- dissolution at 30 minutes ([6]; potency study Lots C and D): 92%
- voxilaprevir released at 30 minutes ([6]; tablets containing 0% w/w crystalline voxilaprevir): 91%
- voxilaprevir released at 30 minutes ([6]; tablets containing neat amorphous voxilaprevir free acid): 76%
- voxilaprevir released at 30 minutes ([6]; tablets containing voxilaprevir SSD): 91%
- voxilaprevir released at 30 minutes ([6]; tablets spiked with 5% w/w Form VIII or Form X): 84%
- voxilaprevir released at 30 minutes ([6]; tablets spiked with 10% w/w Form VIII or Form X): 80%
- voxilaprevir released at 30 minutes ([6]; tablets spiked with 20% w/w Form VIII or Form X): 73%

Compound: CC[C@@H]1[C@@H]2CN(C(=O)[C@H](C(C)(C)C)NC(=O)O[C@@H]3C[C@H]3CCCCC(F)(F)c3nc4ccc(OC)cc4nc3O2)[C@@H]1C(=O)N[C@]1(C(=O)NS(=O)(=O)C2(C)CC2)C[C@H]1C(F)F [voxilaprevir, Form VI, voxilaprevir]
- Ctau ([9]; multiple dose 30 mg): 1.9 ng/mL
- Ctau ([9]; multiple dose 100 mg): 5.7 ng/mL
- Ctau ([9]; multiple dose 300 mg): 10.0 ng/mL
- steady-state concentrations achieved after ([9]; once-daily dosing, all dose levels): 7 days
- t1/2 ([9]; single dose 300 mg, median): 35.49 h
- AUC(0-inf) [10]: 326 ng·h/mL
- Cmax ([10]; read-out: Cmax): 21.7 ng/mL

— patent US11338007B2, “Combination formulation of three antiviral compounds” (priority 2016, dated 2022)
